Read-outs that look alike come from different tables or passages of the source.
Tests used:
Assay type in all cases: cell-based
PCD12 cells [1] = assay: Effect of each inhibitor on neurite elongation potentiated by vitamin K's; conditions: 10 μM PD98059 pretreatment, 48 hours incubation (FIG. 4)
Method: In order to study the action mechanism of vitamin K's, influence of MAPK kinase inhibitor (PD98059), protein kinase A (PKA) inhibitor, and protein kinase C (PKC) inhibitor (chelerythrine chloride) on the effects for potentiating neurite elongation of vitamin K's in PCD12 cells were studied. Pre-incubation of cells was carried out for 1 hour in the presence or in the absence of the inhibitor before treatment of NGF or vitamin K compound. After 48 hours of incubation, the ratio of cells having neurites was examined.

PCD12 cells [2] = test system: PCD12 cells
Method: Cells (PCD12 cells) were harvested and plated on a complete medium of collagen-coating tissue incubation dish in the density of 1.3×10^4 cells/cm^2. After 24 hours, NGF (0-50 ng/ml) and 100 μg/ml (the maximum concentration wherein toxicity against PCD12 cells is not observed) of vitamin K1 or vitamin K2 (n=4) were added to the cells.

PCD12 cells [3] = assay: Bioassay for neurite elongation (potentiation of NGF activity); conditions: for number of cells having neurites (morphological change): 100 μg/ml together with NGF (10 ng/ml) (FIG. 3); for effect of potentiating neurite elongation compared with the negative control group added with NGF 10 ng/ml: 100 μg/ml vitamin K, 48 hours incubation, ratio of cells having neurites (FIG. 1); for effect of potentiating neurite elongation in PCD12 cells: 100 μg/ml, in the presence of low dose of NGF (0-50 ng/ml) (FIG. 1)
Method: Cells (PCD12 cells) were harvested and plated on a complete medium of collagen-coating tissue incubation dish in the density of 1.3×10^4 cells/cm^2. […] After 48 hours of incubation, the ratio of cells having neurites was examined using a phase-contrast microscope under ×200 magnification. […] Each measurement in the data is the mean value calculated from examining random 6 […] duplicate experiments, whereby at least 100 cells/point was counted for calculation.

Row | Compound | inhibition of the potentiation of vitamin K's (PCD12 cells [1]) | maximum concentration wherein toxicity against PCD12 cells is not observed (PCD12 cells [2]; rat) [µg/mL] | number of cells having neurites (morphological change) (PCD12 cells [3]) | effect of potentiating neurite elongation compared with the negative control group added with NGF 10 ng/ml (PCD12 cells [3]) | effect of potentiating neurite elongation in PCD12 cells (PCD12 cells [3]) | maximum concentration wherein toxicity against PCD12 cells is not observed (PCD12 cells [2]) [µg/mL]
1 | COc1cccc(-c2cc(=O)c3ccccc3o2)c1N [PD98059] | almost completely inhibited | – | – | – | – | –
2 | CC1=C(C/C=C(\C)CCC[C@H](C)CCC[C@H](C)CCCC(C)C)C(=O)c2ccccc2C1=O [vitamin K1, phylloquinone] | – | 100 | remarkably increased | about 1.8 times | confirmed | –
3 | menaquinone [vitamin K2] | – | – | remarkably increased | about 2.4 times | confirmed | 100
